Measured values from patent publication US7087641B2, “4β-1″-[(2″-substituted benzoyl) anilino]podophyllotoxin analogues useful as anticancer agents” (Council of Scientific & Industrial Research, priority 2002, dated 2006).

Tested on: tumor cell lines
Assay: Cytotoxicity (in vitro)
Type: cell-based
Settings: range of GI50 values, cell lines not named
From the text: A program was initiated in the laboratory for the design and synthesis of new 4β-aryl amino substituted podophyllotoxin congeners with enhanced antitumour activity and/or activity against etoposide resistant tumor cell lines. In these efforts new 4β-1″-[{2″-benzoyl substituted}anilino] podophyllotoxin derivatives have been synthesized and evaluated for their cytotoxicity and anticancer potency. […] The synthesis of these compounds has been carried out as described in the scheme using podophyllotoxin obtained from the resin. The cytotoxicity of 4a–4p values have been illustrated in the Table 1.

COc1cc(C2c3cc4c(cc3C(Nc3ccc(Cl)cc3C(=O)c3ccccc3)C3COC(=O)C23)OCO4)cc(OC)c1O (stereo not drawn) [4h]
GI50: 14000 to 270000 nM

COc1cc([C@@H]2c3cc4c(cc3[C@@H](Nc3ccccc3C(=O)c3ccccc3)[C@@H]3COC(=O)[C@H]23)OCO4)cc(OC)c1O [4b, 4′-O-Demethyl-4β-1″-[2″-(benzoyl)anilino]-4-desoxypodophyllotoxin]
GI50: 15000 to 382000 nM

COc1cc([C@@H]2c3cc4c(cc3[C@@H](Nc3ccccc3C(=O)c3ccccc3)[C@@H]3COC(=O)[C@H]23)OCO4)cc(OC)c1OC [4a, 4β-1″-[2″-(Benzoyl)anilino]-4-desoxypodophyllotoxin]
GI50: 40 to 500 nM

COc1cc(C2c3cc4c(cc3C(Nc3ccc(Cl)cc3C(=O)c3ccccc3Cl)C3COC(=O)C23)OCO4)cc(OC)c1O (stereo not drawn) [4d, 4′-O-Demethyl-4β-1″-[2″-(2-Chlorobenzoyl)-4″-chloroanilino]-4-desoxypodo-phyllotoxin]
GI50: 100 to 240 nM

COc1cc([C@@H]2c3cc4c(cc3[C@@H](Nc3ccc(Cl)cc3C(=O)c3ccccc3Cl)[C@@H]3COC(=O)[C@H]23)OCO4)cc(OC)c1OC [4c, 4β-1″-[2″-(2-Chlorobenzoyl)-4″-chloroanilino]-4-desoxypodophyllotoxin]
GI50: 59 to 876 nM

COc1cc([C@@H]2c3cc4c(cc3[C@@H](Nc3ccc([N+](=O)[O-])cc3C(=O)c3ccccc3)[C@@H]3COC(=O)[C@H]23)OCO4)cc(OC)c1O [4f]
GI50: 10 to 240 nM

COc1cc([C@@H]2c3cc4c(cc3[C@@H](Nc3ccc(Cl)cc3C(=O)c3ccccc3F)[C@@H]3COC(=O)[C@H]23)OCO4)cc(OC)c1OC [4i, 4β-1″-[2″-(2-Fluorobenzoyl)-4″-chloroanilino]-4-desoxypodophyllotoxin]
GI50: 140 to 300 nM

COc1cc(C2c3cc4c(cc3C(Nc3ccc(Cl)cc3C(=O)c3ccccc3F)C3COC(=O)C23)OCO4)cc(OC)c1O (stereo not drawn) [4j, 4′-O-Demethyl-4β-1″-[2″-(2-Fluorobenzoyl)-4″-chloroanilino]-4-desoxypodo-phyllotoxin]
GI50: 4 to 100 nM

COc1cc([C@@H]2c3cc4c(cc3[C@@H](Nc3cccc(C(=O)c5ccccc5)c3)[C@@H]3COC(=O)[C@H]23)OCO4)cc(OC)c1OC [4k, 4β-1″-[3″-(Benzoyl)anilino]-4-desoxypodophyllotoxin]
GI50: 100 to 1000 nM

COc1cc([C@@H]2c3cc4c(cc3[C@@H](Nc3cccc(C(=O)c5ccccc5)c3)[C@@H]3COC(=O)[C@H]23)OCO4)cc(OC)c1O [4l, 4′-O-Demethyl-4β-1″-[3″-(benzoyl)anilino]-4-desoxypodophyllotoxin]
GI50: 2000 to 16000 nM

COc1cc(C2c3cc4c(cc3C(Nc3ccc(C(=O)c5ccccc5)cc3[N+](=O)[O-])C3COC(=O)C23)OCO4)cc(OC)c1O (stereo not drawn) [4n]
GI50: 10 to 240 nM

COc1cc(C2c3cc4c(cc3C(Nc3ccc(Cl)cc3C(=O)c3ccccc3)C3COC(=O)C23)OCO4)cc(OC)c1OC (stereo not drawn) [4g, 4β-1″-[2″-(Benzoyl)-4″-chloroanilino]-4-desoxypodophyllotoxin]
GI50: 70 to 1100 nM
